Results from patent US8975406B2, “Compound useful for the treatment of degenerative and inflammatory diseases” (Galapagos N.V., priority 2011, dated 2015).

Experiments:
[1] = biological target: T1, Recombinant human JAK3 catalytic domain (Homo sapiens, UniProt P52333); test: JAK3 inhibition assay; type: biochemical; conditions: polyGT substrate, 33P-gamma-ATP filter assay, 1 μM ATP
T1 construct: catalytic domain (amino acids 795-1124; catalog number 08-046); purchased Carna Biosciences 08-046
Procedure: Recombinant human JAK3 catalytic domain (amino acids 795-1124; catalog number 08-046) was purchased from Carna Biosciences. 0.5 ng JAK3 protein was incubated with 2.5 μg polyGT substrate (Sigma catalog number P0275) in kinase reaction buffer (25 mM Tris pH 7.5, 0.5 mM EGTA, 10 mM MgCl2, 2.5 mM DTT, 0.5 mM Na3VO4, 5 mM b-glycerolphosphate, 0.01% Triton X-100, 1 μM non-radioactive ATP, 0.25 μCi ^33P-gamma-ATP (Perkin Elmer, catalog number NEG602K001MC) final concentrations) with or without 5 μL containing test compound or vehicle (DMSO, 1% final concentration), in a total volume of 25 μL, in a polypropylene 96-well plate (Greiner, V-bottom). After 45 min at 30° C., reactions were stopped by adding 25 μL/well of 150 mM phosphoric acid. All of the terminated kinase reaction was transferred to prewashed (75 mM phosphoric acid) 96 well filter plates (Perkin Elmer catalog number 6005177) using a cell harvester (Perkin Elmer). Plates were washed 6 times with 300 μL per well of a 75 mM phosphoric acid solution and the bottom of the plates was sealed. 40 μL/well of Microscint-20 was added, the top of the plates was sealed and readout was performed using the Topcount (Perkin Elmer). Kinase activity was calculated by subtracting counts per min (cpm) obtained in the presence of a positive control inhibitor (10 μM staurosporine) from cpm obtained in the presence of vehicle. The ability of a test compound to inhibit this activity was determined as: Percentage inhibition=((cpm determined for sample with test compound present−cpm determined for sample with positive control inhibitor)divided by(cpm determined in the presence of vehicle−cpm determined for sample with positive control inhibitor))*100.
(§1) Dose dilution series were prepared for the compounds enabling the testing of dose-response effects in the JAK3 assay and the calculation of the IC50 for each compound. Each compound was routinely tested at concentration of 20 μM followed by a ⅕ serial dilution, 10 points in a final concentration of 1% DMSO. When potency of compound series increased, more dilutions were prepared and/or the top concentration was lowered (e.g. 5 μM, 1 μM).

[2] = biological target: T2, Recombinant human TYK2 catalytic domain (Homo sapiens, UniProt P29597); test: TYK2 inhibition assay; type: biochemical; conditions: polyGT substrate, 33P-gamma-ATP filter assay, 0.1 μM ATP
T2 construct: catalytic domain (amino acids 871-1187; catalog number 08-147); GST; purchased Carna Biosciences 08-147
T2 sequence (P29597 871-1187): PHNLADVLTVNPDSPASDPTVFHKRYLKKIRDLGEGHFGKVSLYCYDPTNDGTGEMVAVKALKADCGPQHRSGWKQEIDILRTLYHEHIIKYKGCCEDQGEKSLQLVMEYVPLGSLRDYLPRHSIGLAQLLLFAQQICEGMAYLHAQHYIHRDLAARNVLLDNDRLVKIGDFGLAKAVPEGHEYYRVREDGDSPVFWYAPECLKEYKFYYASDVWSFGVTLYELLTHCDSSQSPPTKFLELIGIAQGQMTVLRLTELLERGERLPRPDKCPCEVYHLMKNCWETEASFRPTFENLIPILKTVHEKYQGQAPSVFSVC
Procedure: Recombinant human TYK2 catalytic domain (amino acids 871-1187; catalog number 08-147) was purchased from Carna biosciences. 4 ng of TYK2 was incubated with 12.5 μg polyGT substrate (Sigma catalog number P0275) in kinase reaction buffer (25 mM Hepes pH 7.2, 50 mM NaCl, 0.5 mM EDTA, 1 mM DTT, 5 mM MnCl2, 10 mM MgCl2, 0.1% Brij-35, 0.1 μM non-radioactive ATP, 0.125 μCi ^33P-gamma-ATP (Perkin Elmer, catalog number NEG602K001MC) final concentrations) with or without 5 μL containing test compound or vehicle (DMSO, 1% final concentration), in a total volume of 25 μL, in a polypropylene 96-well plate (Greiner, V-bottom). After 90 min at 30° C., reactions were stopped by adding 25 μL/well of 150 mM phosphoric acid. All of the terminated kinase reaction was transferred to prewashed (75 mM phosphoric acid) 96 well filter plates (Perkin Elmer catalog number 6005177) using a cell harvester (Perkin Elmer). Plates were washed 6 times with 300 μL per well of a 75 mM phosphoric acid solution and the bottom of the plates was sealed. 40 μL/well of Microscint-20 was added, the top of the plates was sealed and readout was performed using the Topcount (Perkin Elmer). Kinase activity was calculated by subtracting counts per min (cpm) obtained in the presence of a positive control inhibitor (10 μM staurosporine) from cpm obtained in the presence of vehicle. The ability of a test compound to inhibit this activity was determined as: Percentage inhibition=((cpm determined for sample with test compound present−cpm determined for sample with positive control inhibitor)divided by(cpm determined in the presence of vehicle−cpm determined for sample with positive control inhibitor))*100.
as §1, with “TYK2” for “JAK3”, “⅓” for “⅕”, “8” for “10”, “points (20 μM-6.67 μM-2.22 μM-740 nM-247 nM-82 nM-27 nM-9 nM)” for “points”

T1 sequence (P52333 795-1124): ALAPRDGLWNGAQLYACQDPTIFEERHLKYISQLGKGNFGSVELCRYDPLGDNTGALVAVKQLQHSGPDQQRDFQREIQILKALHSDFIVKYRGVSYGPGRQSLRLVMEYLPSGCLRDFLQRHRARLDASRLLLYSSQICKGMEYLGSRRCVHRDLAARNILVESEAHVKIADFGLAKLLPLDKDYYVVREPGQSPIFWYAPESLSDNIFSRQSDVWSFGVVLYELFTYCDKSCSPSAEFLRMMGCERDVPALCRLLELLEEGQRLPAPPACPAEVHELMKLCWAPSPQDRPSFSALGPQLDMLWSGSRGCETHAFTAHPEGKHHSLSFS

| Structure (SMILES) | IC50 [1] [nM] | IC50 [2] [nM] |
| --- | --- | --- |
| CC(=O)Nc1cc2c(-c3ccc(CN4CCN(S(C)(=O)=O)CC4)cc3)cccn2n1 [Compound 25, N-(4-(4-((4-(methylsulfonyl)piperazin-1-yl)methyl)phenyl)pyrazolo[1,5-a]pyridin-2-yl)acetamide] | 101 to 500 | 101 to 500 |
| CC(=O)Nc1cc2c(-c3cnc(CN4CCN(S(C)(=O)=O)CC4)c(F)c3)cccn2n1 [Compound 26, N-(4-(5-fluoro-6-((4-(methylsulfonyl)piperazin-1-yl)methyl)pyridin-3-yl)pyrazolo[1,5-a]pyridin-2-yl)acetamide] | > 1000 | > 1000 |
| CC(=O)Nc1cc2c(-c3ccc(CN4CCS(=O)(=O)CC4)c(F)c3)cccn2n1 [Compound 27, N-{4-[4-(1,1-Dioxo-thiomorpholin-4-ylmethyl)-3-fluoro-phenyl]-pyrazolo[1,5-a]pyridin-2-yl}-acetamide] | 0.01 to 100 | 0.01 to 100 |
| CC(=O)Nc1cc2c(-c3ccc(CN4CCN(CC(F)(F)F)CC4)c(F)c3)cccn2n1 [Compound 28, N-(4-(3-fluoro-4-((4-(2,2,2-trifluoroethyl)piperazin-1-yl)methyl)phenyl)pyrazolo[1,5-a]pyridin-2-yl)acetamide] | 101 to 500 | 101 to 500 |
| CC(=O)Nc1cc2c(-c3ccc(CN4CCC(S(C)(=O)=O)CC4)c(F)c3)cccn2n1 [Compound 29, N-(4-(3-fluoro-4((4-(methylsulfonyl)piperidin-1-yl)methyl)phenyl)pyrazolo[1,5-a]pyridin-2-yl)acetamide] | 101 to 500 | 0.01 to 100 |
| CC(=O)Nc1cc2c(-c3ccc(CC(=O)N4CC(F)(F)C4)cc3)cccn2n1 [Compound 34, N-(4-(4-(2-(3,3-difluoroazetidin-1-yl)-2-oxoethyl)phenyl)pyrazolo[1,5-a]pyridin-2-yl)acetamide] | 101 to 500 | 0.01 to 100 |
| CC(=O)Nc1cc2c(-c3ccc(CC(=O)N4CCCCC4)cc3)cccn2n1 [Compound 35, N-(4-(4-(2-oxo-2-(piperidin-1-yl)ethyl)phenyl)pyrazolo[1,5-a]pyridin-2-yl)acetamide] | 0.01 to 100 | 0.01 to 100 |
| CC(=O)Nc1cc2c(-c3ccc(CC(=O)N4CCOCC4)cc3)cccn2n1 [Compound 36, N-(4-(4-(2-morpholino-2-oxoethyl)phenyl)pyrazolo[1,5-a]pyridin-2-yl)acetamide] | 101 to 500 | 0.01 to 100 |
| CC(=O)Nc1cc2c(-c3ccc(CC(=O)N4COCC4(C)C)cc3)cccn2n1 [Compound 38, N-(4-(4-(2-(4,4-dimethyloxazolidin-3-yl)-2-oxoethyl)phenyl)pyrazolo[1,5-a]pyridin-2-yl)acetamide] | 501 to 1000 | 101 to 500 |
| CC(c1ccc(-c2cccn3nc(NC(=O)C4CC4)cc23)cc1)N1CCN(S(C)(=O)=O)CC1 (centres unmarked) [Compound 43, N-(4-(4-(1-(4-(methylsulfonyl)piperazin-1-yl)ethyl)phenyl)pyrazolo[1,5-a]pyridin-2-yl)cyclopropanecarboxamide] | 0.01 to 100 | 0.01 to 100 |
| C[C@@H]1CN(S(C)(=O)=O)CCN1Cc1ccc(-c2cccn3nc(NC(=O)C4CC4)cc23)cc1 [Compound 44, (R)-N-(4-(4-((2-methyl-4-(methylsulfonyl)piperazin-1-yl)methyl)phenyl)pyrazolo[1,5-a]pyridin-2-yl)cyclopropanecarboxamide] | 0.01 to 100 | 0.01 to 100 |
| CC(=O)Nc1cc2c(-c3ccc(C(C)N4CCN(S(C)(=O)=O)CC4)cc3)cccn2n1 (centres unmarked) [Compound 45, N-(4-(4-(1-(4-(methylsulfonyl)piperazin-1-yl)ethyl)phenyl)pyrazolo[1,5-a]pyridin-2-yl)acetamide] | 101 to 500 | 0.01 to 100 |
| C[C@H](c1ccc(-c2cccn3nc(NC(=O)C4CC4)cc23)cc1)N1CCN(S(C)(=O)=O)CC1 [Compound 46, (R)-N-(4-(4-(1-(4-(methylsulfonyl)piperazin-1-yl)ethyl)phenyl)pyrazolo[1,5-a]pyridin-2-yl)cyclopropanecarboxamide] | 0.01 to 100 | 0.01 to 100 |
| C[C@@H](c1ccc(-c2cccn3nc(NC(=O)C4CC4)cc23)cc1)N1CCN(S(C)(=O)=O)CC1 [Compound 47, (S)-N-(4-(4-(1-(4-(methylsulfonyl)piperazin-1-yl)ethyl)phenyl)pyrazolo[1,5-a]pyridin-2-yl)cyclopropanecarboxamide] | 0.01 to 100 | 0.01 to 100 |
| O=C(Nc1cc2c(-c3ccc(CN4CCCCC45COC5)cc3)cccn2n1)C1CC1 [Compound 48, N-(4-(4-(2-oxa-5-azaspiro[3.5]nonan-5-ylmethyl)phenyl)pyrazolo[1,5-a]pyridin-2-yl)cyclopropanecarboxamide] | 0.01 to 100 | 101 to 500 |
| CS(=O)(=O)N1CC[C@@H](Oc2ccc(-c3cccn4nc(NC(=O)C5CC5)cc34)cc2)C1 [Compound 49, (R)-N-(4-(4-(1-(methylsulfonyl)pyrrolidin-3-yloxy)phenyl)pyrazolo[1,5-a]pyridin-2-yl)cyclopropanecarboxamide] | 0.01 to 100 | 0.01 to 100 |
